Among the data in patent US20050245563A1 (Millennium Pharmaceuticals, Inc., priority 2003, published 2005) are IC50 values, retold here.

Assay [1] deals with T1, human Chk1 (GST-Chk1) (Homo sapiens, UniProt O14757).
T1 construct: made in house; host or cells: insect cells (baculovirus, Bac-to-Bac)
T1 sequence (O14757 1-476): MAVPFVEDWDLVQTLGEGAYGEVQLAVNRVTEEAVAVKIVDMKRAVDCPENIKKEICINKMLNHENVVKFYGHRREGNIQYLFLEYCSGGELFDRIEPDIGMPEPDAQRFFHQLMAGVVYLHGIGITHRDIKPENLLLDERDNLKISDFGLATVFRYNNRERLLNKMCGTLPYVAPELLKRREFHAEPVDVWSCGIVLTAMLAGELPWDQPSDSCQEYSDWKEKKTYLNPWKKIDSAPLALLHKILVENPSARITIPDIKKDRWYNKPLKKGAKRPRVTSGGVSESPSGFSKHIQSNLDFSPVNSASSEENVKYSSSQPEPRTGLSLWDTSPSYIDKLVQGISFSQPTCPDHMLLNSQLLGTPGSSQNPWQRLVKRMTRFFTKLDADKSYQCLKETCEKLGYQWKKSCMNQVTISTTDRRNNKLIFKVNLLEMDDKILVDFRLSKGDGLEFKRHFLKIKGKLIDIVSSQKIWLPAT
As to the kind of experiment: Chk1 FlashPlate kinase assay. The class given is biochemical. The following applies: 8.7 nM GST-Chk1, 1 uM ATP, 33P incorporation into peptide substrate. As for the experimental part:
Recombinant human Chk1 was expressed as a fusion protein with glutathione S-transferase at the amino-terminus (GST-Chk1) using standard baculovirus vectors and (Bac-to-Bac®) insect cell expression system purchased from GIBCO™ Invitrogen. Recombinant protein expressed in insect cells was purified using glutathione sepharose (Amersham Biotech) using standard procedures described by the manufacturer.
Chk1 FlashPlate® Kinase Assay:
Assays (25 μL) contained 8.7 nM GST-Chk1, 10 mM MES, 0.1 mM ethylene glycol-bis(β-aminoethylether)-N,N,N′,N′-tetracetic acid (EGTA, pH 8.0), 2 mM DTT, 0.05% Tween 20, 3 uM peptide substrate (Biotin-ILSRRPSYRKILND-free acid) (SEQ ID NO: 1), 1 uM ATP, 0.4 uCi ^33P-γ-ATP (NEN), 4% DMSO. Reactions were incubated for 30 minutes at room temperature, terminated with 50 μL of 50 mM EDTA and 90 μL were transferred to streptavidin-coated FlashPlates® (NEN) and incubated for 1 hour at room temperature. Plates were washed with phosphate buffered salaine containing 0.01% Tween-20 and 10 mM sodium pyrophosphate. Plates were dried, sealed with Topseal™ (NEN) and amount of ^33P incorporated into the peptide substate measure using a Packard Topcount® NXT™ scintillation counter with standard settings.

Assay [2] concerns the target T1, human Chk1 (GST-Chk1). As to the kind of experiment: Chk1 DELFIA kinase assay (2 nM GST-Chk1, 600 μM ATP). The class given is biochemical. The settings on record: Biotin-GLYRSPSMPEN-amide substrate. In short, it runs like this:
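Enzyme is N-terminal GST-Chk1 from baculovirus/insect cells, assayed with 1 μM biotin-GLYRSPSMPEN-amide in pH 7.5 Tris buffer, 4% DMSO and 10 mM MgCl2 for 50 min at room temperature. EDTA-stopped reactions were captured on NeutrAvidin. Phospho-peptide was detected by anti-phospho-Ser216-Cdc25c antibody with europium-labeled secondary and time-resolved fluorescence.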

Structures are written as SMILES.

`Cc1n[nH]c2c1c(=O)n(CCO)c1ccccc21` [Example 10, 5-(2-Hydroxy-ethyl)-3-methyl-1,5-dihydro-pyrazolo[4,3-c]quinolin-4-one]: the IC50 in assay [1] is < 1000 nM.

Regarding `Cc1n[nH]c2c1c(=O)n(CCN)c1ccc(Br)cc21` [Example 53, 5-(2-Amino-ethyl)-8-bromo-3-methyl-1,5-dihydro-pyrazolo[4,3-c]quinolin4-one], in assay [1], the IC50 was < 1000 nM.

For the compound `Cc1[nH]nc2c1c(=O)n(CCCNC(=O)CCCc1ccccc1)c1ccccc21` [Example 81, N-[3-(3-Methyl-4-oxo-2,4-dihydro-pyrazolo[4,3-c]quinolin-5-yl)-propyl]-4-phenyl-butyramide], in assay [1], the IC50 is < 1000 nM.

As for `Cc1[nH]nc2c1c(=O)n(CCCN)c1ccc(O)cc21` [Example 59, 5-(3-Amino-propyl)-8-hydroxy-3-methyl-2,5-dihydro-pyrazolo[4,3-c]quinolin-4-one], the IC50 in assay [1] is < 1000 nM.

In the case of `COc1ccc(C(=O)NCCCn2c(=O)c3c(C)[nH]nc3c3ccccc32)cc1` [Example 69, 4-Methoxy-N-[3-(3-methyl-4-oxo-2,4,5a,9a-tetrahydro-pyrazolo[4,3-c]quinolin-5-yl)-propyl]-benzamide], the IC50 in assay [1] is < 1000 nM.

As for `Cc1[nH]nc2c1c(=O)n(CCNC(=O)c1ccc(Cl)cc1)c1ccccc21` [Example 90, 4-Chloro-N-[2-(3-methyl-4-oxo-2,4-dihydro-pyrazolo[4,3-c]quinolin-5-yl)-ethyl]-benzamide], in assay [1], the IC50 lay in the range of 1000 to 20000 nM.

Take `COCCc1[nH]nc2c1c(=O)n(CCCN)c1ccc(Cl)cc21` [Example 50, 5-(3-Amino-propyl)-8-chloro-3-(2-methoxy-ethyl)-2,5-dihydro-pyrazolo[4,3-c]quinolin-4-one]: in assay [1], the IC50 is < 1000 nM.

Regarding `Cc1[nH]nc2c1c(=O)n(CCCNC(=O)C(Cc1ccc(Cl)cc1)NC(=O)OC(C)(C)C)c1ccccc21` (stereo not drawn) [Example 96, {2-(4-Chloro-phenyl)-1-[3-(3-methyl-4-oxo-2,4-dihydro-pyrazolo[4,3-c]quinolin-5-yl)-propylcarbamoyl]-ethyl}-carbamic acid tert-butyl ester], the IC50 in assay [1] was > 20000 nM.

Regarding `Cc1[nH]nc2c1c(=O)n(CCCNC(=O)CC(C)C)c1ccccc21` [Example 35, 3-Methyl-N-[3-(3-methyl-4-oxo-2,4-dihydro-pyrazolo[4,3-c]quinolin-5-yl)-propyl]-butyramide], in assay [1], the IC50 is < 1000 nM.

Turning to `Cc1[nH]nc2c1c(=O)n(CCCNC(=O)c1ccc(F)cc1)c1ccccc21` [Example 64, 4-Fluoro-N-[3-(3-methyl-4-oxo-2,4-dihydro-pyrazolo[4,3-c]quinolin-5-yl)-propyl]-benzamide], the IC50 in assay [1] was < 1000 nM.

For `Cc1[nH]nc2c1c(=O)n(CCCNC(=O)c1cccc(Cl)c1)c1ccccc21` [Example 71, 3-Chloro-N-[3-(3-methyl-4-oxo-2,4-dihydro-pyrazolo[4,3-c]quinolin-5-yl)-propyl]-benzamide], in assay [1], the IC50 was < 1000 nM.

Compound `Cc1n[nH]c2c1c(=O)n(CCN1CCOCC1)c1ccccc21` [Example 8, 3-Methyl-5-(2-morpholin-4-yl-ethyl)-1,5-dihydro-pyrazolo[4,3-c]quinolin-4-one] yielded a half-inhibitory concentration (IC50) in assay [1] of 1000 to 20000 nM.

As to `Cc1[nH]nc2c1c(=O)n(CCCNC(=O)C(N)Cc1ccc(Cl)cc1)c1ccccc21` (stereo not drawn) [Example 117, 2-Amino-3-(4-chloro-phenyl)-N-[3-(3-methyl-4-oxo-2,4-dihydro-pyrazolo[4,3-c]quinolin-5-yl)-propyl]-propionamide], the IC50 in assay [1] is < 1000 nM.

For the compound `Cc1[nH]nc2c1c(=O)n(CCCNC(=O)c1cccnc1)c1ccccc21` [Example 82, N-[3-(3-Methyl-4-oxo-2,4-dihydro-pyrazolo[4,3-c]quinolin-5-yl)-propyl]-nicotinamide], the IC50 in assay [1] is < 1000 nM.

Turning to `CCN(CC)CCC(=O)Nc1ccc2c(c1)c1n[nH]c(C)c1c(=O)n2CCCN` [Example 368, N-[5-(3-Amino-propyl)-3-methyl-4-oxo-4,5-dihydro-2H-pyrazolo[4,3-c]quinolin-8-yl]-3-diethylamino-propionamide], the IC50 in assay [2] was < 1000 nM.

In the case of `Cc1[nH]nc2c1c(=O)n(C[C@@H]1CCCNC1)c1ccc(Cl)cc21` [Example 224, 8-Chloro-3-methyl-5R-piperidin-3-ylmethyl-2,5-dihydro-pyrazolo[4,3-c]quinolin-4-one], in assay [2], the half-maximal inhibitory concentration (IC50) was < 1000 nM.

Turning to `C#Cc1ccc2c(c1)c1n[nH]c(CCOC)c1c(=O)n2CCCN` [Example 292, 5-(3-Amino-propyl)-8-ethynyl-3-(2-methoxy-ethyl)-2,5-dihydro-pyrazolo[4,3-c]quinolin-4-one], in assay [2], the IC50 is < 1000 nM.

`Cc1[nH]nc2c1c(=O)n(CCCNCc1cccs1)c1ccc(Cl)cc21` [Example 242, 8-Chloro-3-methyl-5-{3-[(thiophen-2-ylmethyl)-amino]-propyl}-2,5-dihydro-pyrazolo[4,3-c]quinolin-4-one]: the IC50 in assay [2] is < 1000 nM.

For the compound `Cc1[nH]nc2c1c(=O)n(CCCN)c1ccc(C#CCN(C)Cc3ccccc3)cc21` [Example 275, 5-(3-Amino-propyl)-8-[3-(benzyl-methyl-amino)-prop-1-ynyl]-3-methyl-2,5-dihydro-pyrazolo[4,3-c]quinolin-4-one], the IC50 in assay [2] is < 1000 nM.

On to `COCCc1[nH]nc2c1c(=O)n(C[C@H](C)CN)c1ccc(Cl)cc21` [Example 223, 5-(3-Amino-2R-methyl-propyl)-8-chloro-3-(2-methoxy-ethyl)-2,5-dihydro-pyrazolo[4,3-c]quinolin-4-one], for which the IC50 in assay [2] was < 1000 nM.

As to `CCNCCCn1c(=O)c2c(C)[nH]nc2c2cc(Cl)ccc21` [Example 238, 8-Chloro-5-(3-ethylamino-propyl)-3-methyl-2,5-dihydro-pyrazolo[4,3-c]quinolin-4-one], in assay [2], the IC50 is < 1000 nM.

In the case of `COCCc1[nH]nc2c1c(=O)n(C[C@@H](C)CN)c1ccc(Cl)cc21` [Example 222, 5-(3-Amino-2S-methyl-propyl)-8-chloro-3-(2-methoxy-ethyl)-2,5-dihydro-pyrazolo[4,3-c]quinolin-4-one], in assay [2], the IC50 is < 1000 nM.

For `Cc1[nH]nc2c1c(=O)n(CCCN)c1ccc(-c3ccncc3)cc21` [Compound 358, 5-(3-Amino-propyl)-3-methyl-8-pyridin-4-yl-2,5-dihydro-pyrazolo[4,3-c]quinolin-4-one], the IC50 in assay [2] was < 1000 nM.

Consider `COCCc1[nH]nc2c1c(=O)n(CCCN)c1ccc(F)cc21` [Compound 205, 5-(3-Amino-propyl)-8-fluoro-3-(2-methoxy-ethyl)-2,5-dihydro-pyrazolo[4,3-c]quinolin-4-one], for which, in assay [2], the IC50 is < 1000 nM.

As for `Cc1[nH]nc2c1c(=O)n(CCCN)c1ccc(NC(=O)[C@H]3CCCN3)cc21` [Example 263, Pyrrolidine-2R-carboxylic acid [5-(3-amino-propyl)-3-methyl-4-oxo-4,5-dihydro-2H-pyrazolo[4,3-c]quinolin-8-yl]-amide], in assay [2], the IC50 is < 1000 nM.

In the case of `Cc1[nH]nc2c1c(=O)n(CCCN)c1cc(C(=O)NCCN(C)C)ccc21` [Example 335, 5-(3-Amino-propyl)-3-methyl-4-oxo-4,5-dihydro-2H-pyrazolo[4,3-c]quinoline-7-carboxylic acid (2-dimethylamino-ethyl)-amide], the IC50 in assay [2] is < 1000 nM.

Take `Cc1[nH]nc2c1c(=O)n(CCCN)c1cc(C(=O)NCCc3cccnc3)ccc21` [Example 366, 5-(3-Amino-propyl)-3-methyl-4-oxo-4,5-dihydro-2H-pyrazolo[4,3-c]quinoline-7-carboxylic acid (2-pyridin-3-yl-ethyl)-amide]: the IC50 in assay [2] is < 1000 nM.
